Measured values from patent US20190233884A1 (University of Southern California, priority 2016, published 2019).
Where “and” joins values, the source holds several entries; their conditions need not be identical. Identical values can stand only once.

System: patients with refractory metastatic colorectal cancer (mCRC)
Assay: PFS, OS and disease control in the control cohort of refractory mCRC patients receiving regorafenib (n=52, Italy), by baseline characteristics and SNP genotype
Type: in vivo, human
Method: All patients underwent the treatment in salvage-line setting.
Patients in the control group received 160 mg regorafenib (Bayer, Leverkusen, Germany) once daily from day 1 to 21 every 4 weeks. Doses were adjusted based on haematological and non-haematological adverse events at the treating physician's discretion in accordance with the manufacturer's recommendations. The analyses were approved by the University of Southern California (USC) Institutional Review Board of Medical Sciences and conducted at the USC/Norris Comprehensive Cancer Center in accordance with the Declaration of Helsinki and Good Clinical Practice Guidelines.
Genomic DNA was extracted from peripheral whole blood in patients of all cohorts using the QIAmp Kit (Qiagen, Valencia, Calif., USA) according to the manufacturer's protocol (www.qiagen.com). The candidate SNPs were genotyped using PCR-based direct DNA sequence analysis by ABI 3100A Capillary Genetic Analyzer and Sequencing Scanner v1.0 (Applied Biosystems). Amplification of extracted DNA was carried out using both forward and reverse primers for each gene polymorphism as shown in Table 1. […] The investigators analyzing SNPs were blinded to the clinical data of the study patients.
The primary endpoint in this study was progression-free survival (PFS), and the secondary endpoints were overall survival (OS) and disease control rate (DCR). PFS was calculated from the date of starting treatment to the first observation of disease progression or death from any cause. If a patient had no disease progression or death, PFS was censored at the date of last follow up. OS was calculated from the date of starting treatment until the date of death from any cause or the date of the last follow-up, at which point OS was censored. The disease control rate (DCR) was defined as the proportion of patients who achieved a stable disease (SD) or […] according to RECISTv1.1. Chi-square test was used to examine the difference in baseline patient characteristics among the three cohorts. Allelic distribution of all SNPs by ethnicity for deviation from Hardy-Weinberg equilibrium and the allelic frequencies of SNPs were tested using the Chi-square tests with one degree of freedom. The associations between candidate SNPs and disease control, and toxicities were examined using contingency tables and Fisher's exact test. The associations of SNPs with PFS and OS were analysed using Kaplan-Meier curves and the log-rank test. Because the true mode of inheritance of candidate SNPs was not established yet, a codominant or dominant genetic model if appropriate was considered.
All patients underwent the treatment in salvage-line setting. […] In all patients, adverse events were graded according to the Common Terminology Criteria for Adverse Events, version 4.0.
Patients in the control group received 160 mg regorafenib (Bayer, Leverkusen, Germany) once daily from day 1 to 21 every 4 weeks. Doses were adjusted based on haematological and non-haematological adverse events at treating physician's discretion in accordance with the manufacturer's recommendations. The analyses were approved by the University of Southern California (USC) Institutional Review Board of Medical Sciences and conducted at the USC/Norris Comprehensive Cancer Center in accordance with the Declaration of Helsinki and Good Clinical Practice Guidelines.
Genomic DNA was extracted from peripheral whole blood in patients of all cohorts using the QIAmp Kit (Qiagen, Valencia, Calif., USA) according to the manufacturer's protocol (www.qiagen.com). The candidate SNPs were tested using PCR-based direct DNA sequence analysis by ABI 3100A Capillary Genetic Analyzer and Sequencing Scanner v1.0 (Applied Biosystems). […] The investigators analyzing SNPs were blinded to the clinical data.
The primary endpoint in this study was progression-free survival (PFS), and the secondary endpoints were overall survival (OS) and disease control rate (DCR). […]

[1] = control cohort, OCT2 rs316019 C/A and A/A combined
[2] = control cohort, OCT2 rs316019 C/A and A/A combined vs C/C
[3] = control cohort, OCT2 rs316019 C/C
[4] = control cohort, adjusted for ECOG performance status and number of metastases
[5] = control cohort, hENT1 rs760370 A/A
[6] = control cohort, hENT1 rs760370 A/G
[7] = control cohort, hENT1 rs760370 A/G vs A/A
[8] = control cohort, hENT1 rs760370 Any G
[9] = control cohort, hENT1 rs760370 Any G vs A/A
[10] = control cohort, hENT1 rs760370 G/G
[11] = control cohort, hENT1 rs760370 G/G vs A/A
[12] = control cohort, hENT rs9394992 C/C
[13] = control cohort, hENT rs9394992 C/T
[14] = control cohort, hENT rs9394992 C/T and T/T combined
[15] = control cohort, hENT rs9394992 C/T and T/T combined vs C/C
[16] = control cohort, hENT rs9394992 T/T

Structure (SMILES): CNC(=O)c1cc(Oc2ccc(NC(=O)Nc3ccc(Cl)c(C(F)(F)F)c3)c(F)c2)ccn1 [regorafenib]
- Disease Control Rate SD (control cohort, OCT2 rs316019 C/A): 1 (14%)
- Overall Survival Median, months (95% CI) [1]: 5.3 (3.6, 9.6) months
- Progression-free Survival Median, months (95% CI) [1]: 1.8 (1.5, 2.0) months
- Overall Survival HR (95% CI) multivariate [2]: 0.90 (0.39, 2.09)
- Overall Survival HR (95% CI) univariate [2]: 0.79 (0.35, 1.75)
- Progression-free Survival HR (95% CI) multivariate [2]: 1.50 (0.62, 3.61)
- Progression-free Survival HR (95% CI) univariate [2]: 1.00 (0.44, 2.25)
- Disease Control Rate PD [3]: 25 (61%)
- Disease Control Rate SD [3]: 16 (39%)
- Overall Survival Median, months (95% CI) [3]: 3.3 (2.6, 7.9) months
- Progression-free Survival Median, months (95% CI) [3]: 2.1 (1.7, 3.2) months
- Overall Survival HR (95% CI) multivariate [4]: 0.80 (0.40, 1.61)
- Progression-free Survival HR (95% CI) multivariate [4]: 0.88 (0.45, 1.70)
- Disease Control Rate PD [5]: 15 (65%) and 13 (65%)
- Disease Control Rate SD [5]: 7 (35%)
- Overall Survival Median, months (95% CI) [5]: 5.9 (4.5, 8.0) months and 5.9 (4.5, 5.0) months
- Progression-free Survival Median, months (95% CI) [5]: 2.1 (1.8, 3.1) months
- Disease Control Rate PD [6]: 11 (61%)
- Disease Control Rate SD [6]: 7 (39%)
- Overall Survival Median, months (95% CI) [6]: 5.7 (2.0, 8.9) months
- Progression-free Survival Median, months (95% CI) [6]: 1.9 (1.6, 3.9) months
- Overall Survival HR (95% CI) multivariate [7]: 0.95 (0.50, 1.90)
- Overall Survival HR (95% CI) univariate [7]: 1.25 (0.67, 2.35)
- Progression-free Survival HR (95% CI) multivariate [7]: 1.08 (0.57, 2.08)
- Progression-free Survival HR (95% CI) univariate [7]: 1.26 (0.67, 2.37)
- Disease Control Rate PD [8]: 19 (66%)
- Disease Control Rate SD [8]: 10 (34%)
- Overall Survival Median, months (95% CI) [8]: 4.1 (2.2, 7.8 ) months
- Progression-free Survival Median, months (95% CI) [8]: 1.8 (1.5, 2.2) months
- Overall Survival HR (95% CI) multivariate [9]: 1.01 (0.55, 1.88)
- Overall Survival HR (95% CI) univariate [9]: 1.22 (0.70, 2.13)
- Progression-free Survival HR (95% CI) multivariate [9]: 1.15 (0.61, 2.15)
- Progression-free Survival HR (95% CI) univariate [9]: 1.25 (0.71, 2.20)
- Disease Control Rate SD [10]: 3 (27%)
- Overall Survival Median, months (95% CI) [10]: 2.4 (1.2, 9.1) months
- PD, patients n (%) [10]: 8 (73%)
- Progression-free Survival Median, months (95% CI) [10]: 1.4 (0.4, 4.3) months
- Overall Survival HR (95% CI) multivariate [11]: 1.11 (0.48, 2.56)
- Overall Survival HR (95% CI) univariate [11]: 1.17 (0.55, 2.46)
- Progression-free Survival HR (95% CI) multivariate [11]: 1.57 (0.57, 4.35)
- Progression-free Survival HR (95% CI) univariate [11]: 1.24 (0.59, 2.59)
- Disease Control Rate PD [12]: 14 (70%)
- Disease Control Rate SD [12]: 6 (30%)
- Overall Survival Median, months (95% CI) [12]: 4.4 (2.6, 6.0) months
- Progression-free Survival Median, months (95% CI) [12]: 2.0 (1.2, 2.7) months
- Disease Control Rate PD [13]: 16 (70%)
- Disease Control Rate SD [13]: 7 (30%)
- Overall Survival Median, months (95% CI) [14]: 7.7 (3.7, 8.9) months
- Progression-free Survival Median, months (95% CI) [14]: 1.9 (1.7, 3.9) months
- Overall Survival HR (95% CI) multivariate [15]: 0.64 (0.32, 1.30)
- Overall Survival HR (95% CI) univariate [15]: 0.57 (0.31, 1.05)
- Progression-free Survival HR (95% CI) multivariate [15]: 0.85 (0.46, 1.59)
- Progression-free Survival HR (95% CI) univariate [15]: 0.75 (0.42, 1.32)
- Disease Control Rate PD [16]: 2 (33%)
- Disease Control Rate SD [16]: 4 (67%)
- Progression-free Survival Median, months (95% CI) (control cohort, per OCT2 rs316000 genotype (row), OCT2 rs316000 Any A genotype): 1.8 (1.6, 2.8) months
- Progression-free Survival Median, months (95% CI) (control cohort, per OCT2 rs316000 genotype (row), OCT2 rs316000 G/G genotype): 2.1 (1.7, 3.1) months
- Median OS (whole control cohort): 5.3 months
- Median PFS (whole control cohort): 1.9 months
